Where “and” joins values, the source holds several entries; their conditions need not be identical. Equal values may be shown once.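 Where inhibition never reached the appropriate level, the endpoint shown equals the highest concentration tested. Otherwise, values were interpolated linearly from a five-concentration, 48-hour dose response in 96-well plates. GI50: concentration for 50% inhibition of growth. TGI denotes the concentration required for complete inhibition of growth.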
Assays:
Experiment in all cases: NCI tumour cell line growth inhibition, 48 h
SNB-78 CNS = test system: SNB-78 CNS
HOP-18 NSCLC = test system: HOP-18 NSCLC
M19-MEL melanoma = test system: M19-MEL melanoma
XF 498 CNS = test system: XF 498 CNS
DLD-1 colon = test system: DLD-1 colon
SN12K1 renal = test system: SN12K1 renal
RXF-631 renal = test system: RXF-631 renal
LXFL 529 NSCLC = test system: LXFL 529 NSCLC

SMILES	TGI (SNB-78 CNS)	TGI (HOP-18 NSCLC) [µM]	TGI (M19-MEL melanoma) [µM]	TGI (XF 498 CNS) [µM]	TGI (DLD-1 colon)	TGI (SN12K1 renal) [µM]	TGI (RXF-631 renal)	TGI (LXFL 529 NSCLC)	GI50 (RXF-631 renal) [µM]	GI50 (SNB-78 CNS) [µM]	GI50 (HOP-18 NSCLC) [µM]	GI50 (M19-MEL melanoma) [µM]	GI50 (DLD-1 colon) [µM]
O=c1c(-c2ccccc2)c[nH]c2cc([N+](=O)[O-])c(/C(Cl)=C/c3ccccc3)cc12	> 27 µM	23.1	> 42.5	23.7	13.6 µM	> 41.7							
C[Si](C)(C)C#C[I+]c1ccccc1	> 100 µM	> 100	83.7	> 100	40.9 µM		> 100 µM	95.2 µM					
Cc1c2cc[n+](C)cc2c(C)c2c1[nH]c1ccc(O)cc12	> 100 µM	> 94.5	48		> 100 µM	> 82.7							
Cc1c2cc[n+](C)cc2c(COC2OC(CO)C(O)C2O)c2c3ccccc3n(C)c12 (centres undefined)	> 100 µM	> 100	> 100	> 97.3	> 100 µM	> 100							
COc1cccc2c1C(=O)c1c(O)c3c(c(O)c1C2=O)C[C@@](O)(C(C)=O)C[C@@H]3OC1CC(N)C(O)C(C)O1 (some centres undefined)	2.49 µM and 3.43 µM				5.53 µM and 6.33 µM and > 5.01 µM	0.215	3.12 µM and 4.25 µM	1.48 µM and 1.36 µM and > 5.01 µM	0.212	0.184	> 5.01	> 5.01	> 5.01

— PubChem BioAssay (NCI)
